Measured values as given in patent publication US12054485B2, “Substituted imidazoquinolines” (BIONTECH SE, priority 2017, dated 2024).

Test system: Human PBMCs
Experiment: IFN-α induction by TLR agonists in human PBMCs (Luminex)
Assay type: cell-based
Conditions: 24 h incubation, maximum of bell-shaped curve over 0.0003-1 μM, Table 1
Method: 1) IFN-α Induction Assay—IFN-α induction by TLR Agonists in Human PBMCs
Abbreviations: BSA=bovine serum albumine; PBS=phosphate buffer pH 7.4; PE=phycoerythrin; EDC=1-ethyl-3-(3-dimethylaminopropyl)carbodiimide hydrochloride.
Materials and Devices: Bio Plex 200 Luminex device, and BioPlex Manager software; MultiScreen Filter Plates (Millipore, MABVN1250); low binding reaction vials 1.5 ml (Sarstedt, 72.706.600); Activation Buffer: 0.1M Na-dihydrogen phosphate, 0.1M Di-Na hydrogen phosphate pH 6.2; Sulfo-NHS (N-hydroxysulfosuccinimide) solution: 50 mg/ml in water (freshly prepared); EDC solution: 50 mg/ml in water (freshly prepared); Coupling Buffer: PBS; Washing Buffer: PBS+0.05% Tween20; Blocking Buffer: PBS+10 mg/ml BSA+0.05% sodium azide; Assay Buffer: PBS+10 mg/ml BSA;
Other materials and devices (pipets, reaction vessels, shaker, etc.) were standard lab equipment; water was MilliQ grade quality, buffers were sterile filtered before use.
(Pre-)Incubation of Cells:
In each well of a 96-well U-bottom plate 200,000 PBMCs were pre-incubated in medium (RPMI1640-Gibco #61870-044+10% FBS+1% L-glutamine) for 5 hours at 37° C. and 5% CO2 before the compounds of the present invention or controls were added, respectively. Upon addition of compounds of the present invention or controls, the cells are incubated for another 24 h at 37° C. and 5% CO2.
Luminex assay, Step 1: Coupling of antibody to beads: • transfer a suspension (beads are stored in buffer as provided by manufacturer) of about 5 million MicroPlex Microspheres (=beads) into a low binding reaction vial • centrifuge bead suspension for 1 min at 10,000 g, discard supernatant and resuspend pellet in 160 μl Activation Buffer, repeat once • add 20 μl Sulfo-NHS solution and 20 μl EDC solution, vortex • incubate for 20 min in the absence of light • centrifuge bead suspension for 1 min at 10,000 g, discard supernatant and resuspend pellet in 500 μl Coupling Buffer, repeat once • add capture antibody (CaptureAK eBioscience #BMS160, 5 μg per 1 Mio beads) • incubate 2 h at RT in the absence of light while swaying • centrifuge bead suspension for 1 min at 10,000 g, discard supernatant and resuspend pellet in 500 μl Washing Buffer, repeat once • centrifuge bead suspension for 1 min at I0,000 g, discard supernatant and resuspend pellet in 100 μl Blocking Buffer
Luminex assay, Step 2: Measurement • add 100 μlAssay Buffer into each filter plate well (seal any unused wells with adhesive tape), then remove buffer • add about 2,000 beads per well per analyte (per analyte, a different bead type with distinct fluorescence color is used), suspended in […] of Assay Buffer • remove buffer and wash twice with 100 μl Washing Buffer per well • per well, add 50 μl sample solution from the (pre-)incubation step (cell supernatant), or Standard (IFN-α standard eBioscience #BMS216MST—concentration gradient, highest standard concentration 2500 pg/ml) or Assay Buffer (as blanks) • shake plate • incubate plate for 2 h at RT in the absence of light, while swaying the plate • wash three times with 100 μl Washing Buffer per well • add 25 μl antibody detection mix (DetectionAK eBioscience #BMS1016BT diluted 1:1000) in Assay Buffer per well, then vortex plate • incubate plate for 1 h at RT in the absence of light, while swaying the plate • wash three times with 100 μl Washing Buffer per well • add 50 μl Streptavidin/PE (diluted 1:200 in Assay Buffer) per well, then vortex plate • incubate plate for 10 min at RT in the absence of light, while swaying the plate • wash three times with 100 μl Washing Buffer per well • add 100 μl Assay Buffer per well, then vortex plate • start Luminex measurement according to manufacturer's instructions, measuring at least 50 beads per well per analyte
The compounds were tested at 8 different concentrations (1 μM, 0.3 μM, 0.1 μM, 0.03 μM, 0.01 μM 0.003 μM, 0.001 μM, 0.0003 μM) using a half-logarithmic dilution. […]

SMILES: CCc1nc2c(N)nc3ccccc3c2n1CCCCN(C(C)=O)C1CCOCC1 [Example 1, N-(4-(4-Amino-2-ethyl-1H-imidazo[4,5-c]quinolin-1-yl)butyl)-N-(tetrahydro-2H-pyran-4-yl)acetamide]
- Maximum IFN-α release: 1750 pg/mL
